From ChEMBL document CHEMBL1201862, “PubChem BioAssay data set” (2004)
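Method: 48-hour compound exposure of cells in 96-well plates, five concentrations, linear interpolation of endpoints. GI50: concentration for 50% inhibition of growth.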 Active and inactive are the calls of the source. Cut-off read from the data, not from the text of the source: active = GI50 up to about 1.1 µM and inactive = higher.

What was measured:
Experiment in all cases: inhibition of tumour cell growth, NCI panel, 48 h
[1] = tested on: A498
[2] = tested on: CAKI-1
[3] = tested on: DMS-273
[4] = tested on: HOP-62
[5] = tested on: HOP-92
[6] = tested on: HT-29
[7] = tested on: Hs-578T
[8] = tested on: KM12
[9] = tested on: LOX IMVI
[10] = tested on: MOLT-4
[11] = tested on: NCI-H226
[12] = tested on: NCI-H23
[13] = tested on: NCI-H522
[14] = tested on: OVCAR-4
[15] = tested on: OVCAR-8
[16] = tested on: RPMI-8226
[17] = tested on: SF-268
[18] = tested on: SN12C
[19] = tested on: SNB-19
[20] = tested on: TK-10

Measured: GI50

Sc1nc(S)nc(Oc2ccc(Cl)c(Cl)c2)n1
inactive: [1] 24 µM | [2] 46.3 µM | [3] 19 µM | [4] 40 µM | [5] 19.2 µM | [6] 49.5 µM | [7] 89.1 µM | [8] 14.6 µM | [9] 18.1 µM | [10] 18.1 µM | [11] 38.1 µM | [12] 27.2 µM | [13] 18.5 µM | [14] 41.1 µM | [15] 32.5 µM | [16] 9.95 µM | [17] > 52.4 µM | [18] 37.9 µM | [19] > 65.2 µM | [20] > 66.1 µM

CC(C)OC(=O)c1cc(NC(=O)C(C)(C)C)c(F)cc1Cl
inactive: [1] > 100 µM | [2] > 100 µM | [3] > 100 µM | [4] > 100 µM | [5] > 100 µM | [6] > 100 µM | [8] > 100 µM | [9] > 100 µM | [10] > 100 µM | [11] > 100 µM | [12] > 100 µM | [13] > 100 µM | [14] > 100 µM | [15] > 100 µM | [16] > 100 µM | [17] > 100 µM | [18] > 100 µM | [19] > 100 µM | [20] > 100 µM

C/N=c1\ss/c(=N\C(=S)N(C)C)n1-c1ccccc1
inactive: [1] 44.6 µM | [2] > 100 µM | [3] > 100 µM | [4] > 80.7 µM | [5] 39.5 µM | [6] > 31.6 µM | [8] > 100 µM | [9] > 100 µM | [10] > 100 µM | [11] > 100 µM | [12] > 68.1 µM | [13] 9.14 µM | [14] > 100 µM | [15] > 100 µM | [16] > 100 µM | [17] 34 µM | [18] > 100 µM | [19] > 52.7 µM | [20] > 100 µM
